Reference: patent publication US20040253665A1, “Novel peptide-producing enzyme, microbe producing the enzyme and method for dipeptide synthesis using them” (AJINOMOTO CO., INC., priority 2002, published 2004)
Non-standard residues stand in square brackets, D forms with d. Residues, ends and D or L forms follow the SMILES beside them. *: point of attachment. 2Nal = N[C@@H](Cc1ccc2ccccc2c1)C(=O)O; Cha = N[C@@H](CC1CCCCC1)C(=O)O; Boc = CC(C)(C)OC(=O)*

Columns and labels:
[1] = tested on: peptide-producing enzyme (Mono S fraction) from Empedobacter brevis strain FERM BP-8113; assay: Enzyme inhibitors: effect on production of L-alanyl-L-glutamine; assay type: biochemical; settings: for Inhibition of the enzyme (in words): serine enzyme inhibitors at 10 mM
[2] = tested on: peptide-producing enzyme (Mono S fraction) from Empedobacter brevis strain FERM BP-8113; assay: Enzyme substrate specificity (1)-(10), (13), (14); assay type: biochemical; set-up: key: +: those for which production was confirmed but which were unable to be quantified due to the absence of a standard; a trace amount
Text: Ester specificity was examined in the case of using L-amino acid ester for the carboxy component. […] The amounts of L-Ala-L-Gln produced in this reaction are shown in Table 4 (HCl represents hydrochloride in Table 4). Peptide production was examined in the case of using L-alanine methyl ester for the carboxy component and using various L-amino acids for the amine component. […] (The “+” mark indicates those peptides for which production was confirmed but which were unable to be quantified due to the absence of a standard, while “tr” indicates a trace amount.) Peptide production was examined in the case of using various types of L-amino acid methyl esters for the carboxy component and using L-glutamine for the amine component. […] Peptide production was examined in the case of using various L-amino acid methyl esters for the carboxy component and various L-amino acids for the amine component. […] (The “tr” indicates a trace amount.) Furthermore, Tween-80 was added to the reaction system to a final concentration of 0.1% in the case of using L-Trp-OMe. (The “+” mark indicates those peptides for which production was confirmed but which were unable to be quantified due to the absence of a standard.) […] (The “tr” indicates a trace amount.) Peptide production was examined using various L-amino acid amides for the carboxy component, and various L-amino acids for the amine component. […] Peptide production was examined in the case of using various L-alanine methyl esters for the carboxy component and C-protected L-amino acids for the amine component. […] Peptide production was examined in the case of using various amino acid methyl esters for the carboxy component and methylamine for the amine component. […] Peptide production was examined in the case of using β-amino acid ester for the carboxy component or β-amino acid for the amine component. […] (The “tr” indicates a trace amount.) Oligopeptide production was examined in the case of using L-amino acid ester for the carboxy component and peptide for the amine component. […] Substrate specificity was additionally assessed using the same enzyme fraction as that used in Example 5. […] (A “+” mark indicates those for which production was confirmed but which were unable to be quantified due to the absence of a standard, while “tr” indicates a trace amount). Substrate specificity with respect to oligopeptide production was assessed using the same enzyme fraction as Example 26. […] (A “+” mark indicates those for which production was confirmed but which were unable to be quantified due to the absence of a standard, while “tr” indicates a trace amount). It should be noted that hydrochlorides were used for all of the carboxy components.

[3] = tested on: Empedobacter brevis strain FERM BP-8113 microbial cells; assay: Production of peptide using microbial cells of Empedobacter brevis; assay type: cell-based; settings: microbial cell suspension 100 g/L mixed 1:1 with 200 mM carboxy component and 400 mM amino acid, pH 9.0, 10 mM EDTA, 18° C., 2 hours
Method: A 50 mL medium (pH 6.2) containing 5 grams (hereinafter, “g”) of glucose, 5 g of ammonium sulfate, 1 g of monopotassium phosphate, 3 g of dipotassium phosphate, 0.5 g of magnesium sulfate, 10 g of yeast extract and 10 g of peptone in 1 liter (hereinafter, “L”) was transferred to a 500 mL Sakaguchi flask and sterilized at 115° C. for 15 minutes. This medium,was then inoculated with one loopful of the culture broth of Empedobacter brevis strain FERM BP-8113 (Depositary institution: National Institute for Advanced Industrial Science and Technology, International Patent Organism Depositary, Address of depositary institution: Chuo Dai-6, 1-1 Higashi 1-Chome, Tsukuba-shi, Ibaraki-ken, Japan, International deposit transfer date: Jul. 8, 2002) that had been cultured at 30° C. for 16 hours in the same medium, followed by shake culturing at 30° C. for 16 hours and 120 strokes/min.

[4] = tested on: peptide-producing enzyme (Mono S fraction) from Empedobacter brevis strain FERM BP-8113; assay: Production of L-alanyl-L-glutamine from L-alanine methyl ester and L-glutamine with enzyme fraction; assay type: biochemical; settings: for L-Ala-L-Gln: L-alanine methyl ester hydrochloride 100 mM, 18° C., 2 hours
Method: On the other hand, there was hardly any production of L-Ala-L-Gln observed in an enzyme-non-added lot, and the […] was only about 0.07 mM after reacting for 120 minutes.

[5] = tested on: peptide-producing enzyme (Mono S fraction) from Empedobacter brevis strain FERM BP-8113; assay: Enzyme substrate specificity (1)-(10), (13), (14); assay type: biochemical; settings: pH 9.0, 25° C., 3 hours
Procedure, shortened: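 Mono S-purified peptide-forming enzyme from Empedobacter brevis FERM BP-8113, given L-amino acid esters (hydrochlorides) or amides as carboxy component with amino acids, C-protected amino acids, methylamine, β-amino acids or peptides as amine component. Dipeptide/oligopeptide product quantified; Tween-80 0.1% added with L-Trp-OMe.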

[6] = tested on: enzyme (SP-Sepharose HP fraction) derived from Sphingobacterium sp. strain FERM BP-8124; assay type: biochemical; settings: pH 9.0, 25° C.
Procedure, shortened: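 Purified enzyme (SP-Sepharose HP fraction, 0.33 units) reacted with carboxy components (100 mM, as hydrochlorides) and amine components (150 mM) in 100 mM borate buffer pH 9.0 with 10 mM EDTA. Reactions ran 1.5 h at 25 °C to assess peptide and oligopeptide formation.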

[7] = inhibitor at 10 mM, pH 9.0, 25° C., 5 minutes, 100 = absence of enzyme inhibitor
[8] = oligopeptide production, amount of enzyme 0.2 units, pH 9.0, 25° C., 3 hours

Compound: O=C(O)CN(CCN(CC(=O)O)CC(=O)O)CC(=O)O [EDTA, ethylenediaminetetraacetic acid]
- Relative activity of L-Ala-L-Gln production (%) [1, 7]: 96%

Compound: C[C@H](N)C(=O)N[C@@H](Cc1ccc2ccccc2c1)C(=O)O [H-Ala-2-Nal-OH] (H-Ala-[2Nal]-OH)
- Produced peptide (mM) ([2]; carboxy component 20 mM, amine component 20 mM, 0.1 unit enzyme, 25° C., reaction time 3 hr): +

Compound: N[C@@H](CC1CCCCC1)C(=O)N[C@@H](Cc1ccccc1)C(=O)O [H-CHA-Phe-OH] (H-[Cha]-Phe-OH)
- Produced peptide (mM) ([2]; carboxy component 40 mM, amine component 40 mM, 0.1 unit enzyme, 25° C., reaction time 3 hr): +

Compound: CC(C)(C)OC(=O)NCCCC[C@H](N)C(=O)N[C@@H](CCC(N)=O)C(=O)O [H-Lys(Boc)-Gln-OH] (H-Lys(Boc)-Gln-OH)
- Produced peptide (mM) ([2]; carboxy component 100 mM, amine component 150 mM, 0.1 unit enzyme, 25° C., reaction time 2 hr): +

Compound: C[C@H](N)C(=O)N[C@@H](CCC(N)=O)C(=O)O [L-Ala-L-Gln, L-alanyl-L-glutamine] (H-Ala-Gln-OH)
- Produced peptide [3]: 68.0 mM
- L-alanyl-L-glutamine produced ([4]; 3 μl enzyme fraction, 100 mM L-alanine methyl ester hydrochloride, 200 mM L-glutamine, pH 9.0, 18° C., enzyme-added lot (FIG. 3)): 83 mM
- L-Ala-L-Gln ([4]; L-glutamine 100 mM): 68.2 mM
- L-Ala-L-Gln ([4]; L-glutamine 110 mM): 72.1 mM
- L-Ala-L-Gln ([4]; L-glutamine 120 mM): 73.3 mM
- L-Ala-L-Gln ([4]; L-glutamine 130 mM): 75.1 mM
- L-Ala-L-Gln ([4]; L-glutamine 150 mM): 75.5 mM
- L-Ala-L-Gln ([4]; L-glutamine 200 mM): 82.0 mM
- Produced peptide ([5]; 100 mM L-alanine methyl ester hydrochloride, L-amino acid 150 mM): 79.3 mM
- Produced peptide ([5]; L-amino acid amide hydrochloride 100 mM as carboxy component, L-amino acid 150 mM): 7.6 mM
- Produced peptide ([5]; L-amino acid methyl ester hydrochloride 100 mM, 150 mM L-glutamine): 74.6 mM
- L-alanyl-L-glutamine produced ([6]; 10 μl SP-Sepharose HP fraction (about 27 U/ml) in 90 μl with 111 mM L-alanine methyl ester hydrochloride, 222 mM L-glutamine, 120 minutes, enzyme-added lot): 73 mM
- Produced peptide ([6]; Table 15-4, amides or methylamine as components, 100 mM / 150 mM, 0.33 units enzyme, 1.5 hours): 0.3 mM

Compound: O=C(O)CI [Monoiodoacetate]
- Relative activity of L-Ala-L-Gln production (%) ([1]; pH 9): 101%

Compound: CCN1C(=O)C=CC1=O [N-Ethyl maleimide]
- Relative activity of L-Ala-L-Gln production (%) [1, 7]: 110%

Compound: O=S(=O)(F)Cc1ccccc1 [Phenylmethylsulfonyl fluoride]
- Relative activity of L-Ala-L-Gln production (%) [1, 7]: 115%
- Inhibition of the enzyme (in words) [1]: not inhibited

Compound: c1cnc2c(c1)ccc1cccnc12 [o-Phenanthroline]
- Relative activity of L-Ala-L-Gln production (%) [1, 7]: 96%

Compound: N=C(N)Nc1ccc(C(=O)Oc2ccc([N+](=O)[O-])cc2)cc1 [p-Nitrophenyl-p′-guanidino benzoate, p-nitrophenyl-p′-guanidinobenzoate]
- Relative activity of L-Ala-L-Gln production (%) [1, 7]: 0.1%
- Inhibition of the enzyme (in words) [1]: inhibited

Compound: L-Ala-Gly-Gly-L-Phe-L-Met
- Produced peptide (mM) [2, 8]: +

Compound: L-Ala-Gly-L-Phe
- Produced peptide (mM) ([2]; oligopeptide production, amount of enzyme 0.1 units, pH 9.0, 25° C., 3 hours): +

Compound: L-Ala-L-Ala-L-Gln
- concentration of by-product ([4]; 3 μl enzyme fraction, 100 mM L-alanine methyl ester hydrochloride, 200 mM L-glutamine, pH 9.0, 18° C., enzyme-added lot): 1.3 mM
- Produced peptide ([5]; L-amino acid ester 100 mM, amino acid or peptide amine component 150 mM): 15.2 mM

Compound: L-Ala-L-Phe-L-Met
- Produced peptide (mM) [2, 8]: +
